# Experimental data published in article PMC6300691, “Enhancement of Heat Stability and Kinetic Parameters of the Maize Endosperm ADP-Glucose Pyrophosphorylase by Mutagenesis of Amino Acids in the Small Subunit With High B Factors” (Frontiers in Plant Science, 2018).
# Where a chain is given by its changes, count along the chain named.
# How the values were obtained:
# Assay in all cases: Activation constant from initial rates with varied 3-PGA (0-1 mM) at 2 mM ATP and 2 mM G-1-P, pH 7.4, 15 mM MgCl2, fitted to V = Vmin + Vmax*X/(Ka + X).
# Assay type in all cases: biochemical
# [1] = target: T1, E123G, R331K, K402R (BT2-BF) (Zea mays, UniProt P55241+Q947C0, E123G/R331K/K402R)
# T1 construct: BT2-BF with wild type SH2 (SH2-WT/BT2-BF), E. coli, purified
# T1 sequence (Q947C0 1-475 E123G/R331K/K402R): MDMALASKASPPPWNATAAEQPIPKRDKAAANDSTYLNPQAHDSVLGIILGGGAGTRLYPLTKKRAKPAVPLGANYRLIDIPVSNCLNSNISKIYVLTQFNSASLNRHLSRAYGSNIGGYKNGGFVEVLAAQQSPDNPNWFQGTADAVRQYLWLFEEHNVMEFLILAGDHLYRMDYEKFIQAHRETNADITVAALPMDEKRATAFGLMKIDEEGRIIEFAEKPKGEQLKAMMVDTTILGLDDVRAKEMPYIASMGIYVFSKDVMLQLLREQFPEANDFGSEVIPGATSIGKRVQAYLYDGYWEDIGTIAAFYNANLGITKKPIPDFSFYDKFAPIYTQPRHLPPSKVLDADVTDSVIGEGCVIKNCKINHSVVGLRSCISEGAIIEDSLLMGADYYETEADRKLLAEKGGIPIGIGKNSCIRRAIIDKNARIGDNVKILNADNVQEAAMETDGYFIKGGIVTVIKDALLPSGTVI
# T1 sequence (P55241 46-516): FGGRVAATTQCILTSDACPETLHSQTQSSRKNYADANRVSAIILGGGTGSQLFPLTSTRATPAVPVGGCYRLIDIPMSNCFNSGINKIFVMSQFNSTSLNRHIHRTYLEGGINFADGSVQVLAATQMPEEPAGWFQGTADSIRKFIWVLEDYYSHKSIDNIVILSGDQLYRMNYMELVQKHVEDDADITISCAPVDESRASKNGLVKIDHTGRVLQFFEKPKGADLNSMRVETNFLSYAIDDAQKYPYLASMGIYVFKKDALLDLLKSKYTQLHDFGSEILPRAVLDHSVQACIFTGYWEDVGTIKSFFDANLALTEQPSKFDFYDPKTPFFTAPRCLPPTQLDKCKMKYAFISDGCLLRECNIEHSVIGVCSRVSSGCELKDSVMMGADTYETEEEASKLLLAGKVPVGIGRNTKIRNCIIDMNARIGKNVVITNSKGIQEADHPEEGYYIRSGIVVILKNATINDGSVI
# Description: (§1) All reactions were developed as above.
# L404E = target: T2, L404E (Zea mays, UniProt P55241+Q947C0, L404E)
# T2 construct: BT2 variant with wild type SH2, E. coli, purified
# Description: as §1
# L404H = target: T3, L404H (Zea mays, UniProt P55241+Q947C0, L404H)
# T3 construct: BT2 variant with wild type SH2, E. coli, purified
# Description: as §1
# L404K = target: T4, L404K (Zea mays, UniProt P55241+Q947C0, L404K)
# T4 construct: BT2 variant with wild type SH2, E. coli, purified
# Description: as §1
# SH2-E = target: T5, SH2-E (Zea mays, UniProt P55241+Q947C0, N131R/T142F/A160T/Q261S/A396S/V416I/C424V/S444A)
# T5 construct: SH2-E with wild type BT2 (SH2-E/BT2-WT), E. coli, purified
# T5 sequence (Q947C0 1-475): T1 sequence (Q947C0 1-475 E123G/R331K/K402R) with G123E, K331R, R402K
# T5 sequence (P55241 46-516 N131R/T142F/A160T/Q261S/A396S/V416I/C424V/S444A): T1 sequence (P55241 46-516) with N86R, T97F, A115T, Q216S, A351S, V371I, C379V, S399A
# Description: as §1
# SH2-E/BT2-BF = target: T6, SH2-E/BT2-BF (Zea mays, UniProt P55241+Q947C0, E123G/N131R/T142F/A160T/Q261S/R331K/A396S/K402R/V416I/C424V/S444A)
# T6 construct: SH2-E co-expressed with BT2-BF, E. coli, purified
# T6 sequence (Q947C0 1-475 E123G/R331K/K402R): T1 sequence (Q947C0 1-475 E123G/R331K/K402R)
# T6 sequence (P55241 46-516 N131R/T142F/A160T/Q261S/A396S/V416I/C424V/S444A): T1 sequence (P55241 46-516) with N86R, T97F, A115T, Q216S, A351S, V371I, C379V, S399A
# Description: as §1
# SH2-ISM/BT2-BF = target: T7, SH2-ISM/BT2-BF (Zea mays, UniProt P55241+Q947C0, Q96G/E123G/D161G/R331K/K402R/A443R)
# T7 construct: SH2-ISM co-expressed with BT2-BF, E. coli, purified
# T7 sequence (Q947C0 1-475 E123G/R331K/K402R): T1 sequence (Q947C0 1-475 E123G/R331K/K402R)
# T7 sequence (P55241 46-516 Q96G/D161G/A443R): T1 sequence (P55241 46-516) with Q51G, D116G, A398R
# Description: as §1
# T3 sequence (Q947C0 1-475 L404H, one chain of several): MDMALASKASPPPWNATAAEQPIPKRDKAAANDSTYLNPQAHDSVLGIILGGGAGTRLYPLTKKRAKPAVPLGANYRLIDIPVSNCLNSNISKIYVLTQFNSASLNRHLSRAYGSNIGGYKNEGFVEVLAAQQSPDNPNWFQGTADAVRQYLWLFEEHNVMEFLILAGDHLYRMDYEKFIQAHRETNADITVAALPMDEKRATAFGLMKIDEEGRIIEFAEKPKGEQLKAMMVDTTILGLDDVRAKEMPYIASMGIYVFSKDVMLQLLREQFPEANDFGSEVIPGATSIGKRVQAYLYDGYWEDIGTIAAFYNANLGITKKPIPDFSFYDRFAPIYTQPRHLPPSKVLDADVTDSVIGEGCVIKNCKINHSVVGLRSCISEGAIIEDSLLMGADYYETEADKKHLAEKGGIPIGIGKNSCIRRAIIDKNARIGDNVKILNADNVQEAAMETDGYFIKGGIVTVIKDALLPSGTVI
# T4 sequence (Q947C0 1-475 L404K, one chain of several): as the sequence (Q947C0 1-475 L404H, one chain of several) above, with H404K counted along it
# T2 sequence (Q947C0 1-475 L404E, one chain of several): as the sequence (Q947C0 1-475 L404H, one chain of several) above, with H404E counted along it
compound,measurement,setting,value
"O=C(O)[C@H](O)COP(=O)(O)O [3-PGA, 3-phosphoglycerate (3-phosphoglyceric acid)]",3-PGA Ka (activation constant),[1],0.060 ± 0.0097
same,3-PGA Ka (activation constant),L404E,0.15 ± 0.014
same,3-PGA Ka (activation constant),L404H,0.05 ± 0.008
same,3-PGA Ka (activation constant),L404K,0.14 ± 0.047
same,3-PGA Ka (activation constant),SH2-E,0.070 ± 0.01
same,3-PGA Ka (activation constant),SH2-E/BT2-BF,0.36 ± 0.09
same,3-PGA Ka (activation constant),SH2-ISM/BT2-BF,0.23 ± 0.11
